Experimental data published in patent US20090030037A1, “Sustained Release Formulation and Dosing Schedules of Leukotriene Synthesis Inhibitor for Human Therapy” (deCODE Genetics ehf., priority 2005, published 2009).
“Also recorded” adds a separate entry of the source.

Columns and labels:
[1] = tested on: MPO; assay: Study DG-031-203: plasma MPO; format: in vivo, human; settings: 250 mg TID, 6 hours after intake
Experimental: The study also collected information on the dose-related effect of DG-031 on capacity for LTB4 production (ex vivo), plasma MPO, and serum-CRP. […] The pattern observed supported a concentration dependent pharmacologic effect of DG-031 on capacity for LTB4 production measured ex vivo. The effects on LTB4 production amounted to a 30% (p=0.016) and 25% (p=0.094) reduction with the 375 mg BID and 250 mg TID doses, respectively.

[2] = tested on: LTB4; assay: Study DG-031-204: serum LTB4; format: in vivo, human; settings: after 4 weeks
Experimental: (§1) An additional single site, open label study was carried out to obtain biomarker and safety data on additional DG-031 doses (i.e., 1000 mg and 1500 mg). This study examined the safety, tolerability and dose-related effects of DG-031 on inflammatory biomarkers including: LTB4, hsCRP, and MPO. A total of 119 patients with a prior history of CAD and MI were randomized to receive either 1000 mg DG-031 (500 mg BID) or 1500 mg DG-031 (500 mg TID) daily for 4-6 weeks. Treatment with DG-031 in addition to the subject's standard care, medication, and treatment, was prescribed by the patient's cardiologist. A majority of the subjects received statin therapy before, during and after the study. Follow-up assessments were performed 2 weeks after the end of study drug administration.
The biomarkers were analyzed as described in Example 1. Statistical analysis of the data was carried out using a one-sample t-test on change from baseline with a two-sided nominal significance level of 0.050. […]
Serum was collected weekly for determination of LTB4 concentration in response to the treatment with DG-031. […] Stimulated LTB4 effects measured in study DG-031-204, as shown in the raw data set out in Table 12, appear consistent with projections from the exposure-response analysis based on data from studies DG-031-201 and DG-031-203. […]

[3] = tested on: MPO; assay: Study DG-031-204: MPO in ionomycin-stimulated whole blood; format: in vivo, human; settings: for Stimulated MPO from whole blood (% change from baseline, whole blood, WBC corrected, 60 minute), mean response: after 4 weeks of DG-031 administration
Experimental: as §1
(§2) The biomarkers were analyzed as described in Example 1. Statistical analysis of the data was carried out using a one-sample t-test on change from baseline with a two-sided nominal significance level of 0.050. Biomarker concentrations were log-transformed and a simple last observation carried forward (LOCF) scheme was used to impute missing observations.
Plasma MPO concentration was measured weekly. MPO measurements in ionomycin-stimulated whole blood were also measured in a subset of patients at 4 weeks.

[4] = Study DG-031-204: adverse events; format: in vivo; settings: for SAE Description: single patients
Experimental: as §1
A total of 5 patients reported 8 serious adverse events (SAE). One death was reported during the trial. All SAE's were consistent with underlying CAD disorders (see Table 16). A total of 88 of 119 patients reported 203 adverse events. The most commonly reported adverse events (and number of cases reported) included: cold (27), headache (13), constipation/diarrhea (6/8), and vertigo (5).

[5] = tested on: LDL-C; assay: Study DG-031-204: LDL-C; format: in vivo, human; settings: for LDL-C increase, mean change from baseline: after 4 weeks
Experimental: as §1, §2
LDL-C was measured weekly after administration of DG-031 500 mg BID or 500 mg TID. The mean change from baseline after 4 weeks of treatment was an increase of 9% (p=0.004; n=52) for 500 mg BID and an increase of 9% (p<0.001; n=58) for the 500 TID group. […] The LDL-C effect appeared to increase over time and tended toward baseline values at the 2-week follow up visit. A preliminary exposure-response analysis of data from studies DG-031-201, DG-031-203, and DG-031-204 supported a dose related increase in LDL-C.

[6] = Clinical studies in CAD patients: safety and tolerability; format: in vivo, human
Experimental: Previous clinical studies administered the dosages of DG-031 either in a single dose (QD) or twice a day (BID)
A total daily dose of 750 mg, dosed at 250 mg TID, provides a preferable PK/PD relationship (inhibition of LTB4) and efficacy in terms of lowering other biomarkers of MI risk (i.e. MPO and CRP). In addition, a total daily dose of 1000 mg, dosed at 500 mg BID, also provides a preferable PK and PD time course (inhibition of LTB4) and efficacy in terms of lowering other biomarkers of MI risk (i.e. MPO). Patient compliance is an important consideration when designing a dosing schedule and patients are more likely to comply with a twice a day dosing (BID) than three times a day doing (TID).

[7] = 119 patients, 500 mg BID or TID, 4-6 weeks

Compound: O=C(O)[C@@H](c1ccc(OCc2ccc3ccccc3n2)cc1)C1CCCC1 [DG-031, (R)-(+)-alpha-cyclopentyl-4-(2-quinolinylmethoxy)-Benzeneacetic acid]
- Reduction of plasma MPO levels [1]: 37%
- Serum LTB4 (% change from baseline) ([2]; 1000 mg (500 mg BID)): −73%
- Serum LTB4 (% change from baseline) ([2]; 1500 mg (500 mg TID)): −50%
- Stimulated whole blood MPO concentrations ([3]; 500 mg BID or TID, 4 weeks): decreased
- Stimulated MPO from whole blood (% change from baseline, whole blood, WBC corrected, 60 minute), mean response ([3]; 1000 mg (500 mg BID)): −19%
- Stimulated MPO from whole blood (% change from baseline, whole blood, WBC corrected, 60 minute), mean response ([3]; 1500 mg (500 mg TID)): −29%
- SAE Description ([4]; 1000 mg treatment): Cardiac arrest,; also recorded: Subarachnoid hemorrhage; also recorded: Angiography,; also recorded: Repair of Carotid artery; also recorded: Myocardial infarction; also recorded: Unstable angina; also recorded: Myocardial infarction,
- SAE Description ([4]; 1500 mg treatment): Congestive heart failure
- Adverse events reported ([4]; 119 patients): 203
- Cases of cold ([4]; 119 patients): 27
- Cases of constipation ([4]; 119 patients): 6
- Cases of diarrhea ([4]; 119 patients): 8
- Cases of headache ([4]; 119 patients): 13
- Cases of vertigo ([4]; 119 patients): 5
- Deaths reported during the trial ([4]; 119 patients, 500 mg BID or TID): One
- Patients reporting serious adverse events [4, 7]: 5
- Serious adverse events (SAE) reported [4, 7]: 8
- Patients reporting adverse events ([4]; of 119 patients): 88
- LDL-C increase, mean change from baseline ([5]; 500 mg BID): 9%
- LDL-C increase, mean change from baseline ([5]; 500 mg TID): 9%
- LDL-C percent change from baseline after 4 weeks of DG-031 administration, Mean ([5]; dose 250): 2.3%
- LDL-C percent change from baseline after 4 weeks of DG-031 administration, Mean ([5]; dose 500): 5.0%
- LDL-C percent change from baseline after 4 weeks of DG-031 administration, Mean ([5]; dose 750): 7.7%
- LDL-C percent change from baseline after 4 weeks of DG-031 administration, Mean ([5]; dose 1000): 10.3%
- LDL-C percent change from baseline after 4 weeks of DG-031 administration, Mean ([5]; dose 1250): 13.0%
- LDL-C percent change from baseline after 4 weeks of DG-031 administration, Mean ([5]; dose 1500): 15.7%
- Safety and tolerability ([6]; 250 mg QD, 375 mg QD, 250 mg BID, 375 mg BID, 250 mg TID): safe and well tolerated
- Safety and tolerability ([6]; total daily doses 250, 500, 750 mg, 128 days): safe and well tolerated
